What was measured:
[1] = system: duplex DNA containing VdU (vinyl-modified ODN); assay: Kinetic measurements with ODNs (DNA-templated PINK-VdU reaction); conditions: 50 mM aq. NaOAc buffer pH 5.2 (0.8% DMSO)
Excerpt: A) Relative fluorescence units (RFU) of PINK upon reaction with vinyl-modified ODN versus time. […] B) Normalized increase of fluorescence. C) Plot of the observed rates k′ against PINK concentration. The slope yields the rate constant k.
To characterize DNA-templated PINK-VdU reactions, a VdU-containing, palindromic 17-mer DNA oligonucleotide “ODN1” was synthesized (Table 1). The DMT-protected VdU phosphoramidite S4 (Scheme 2)^[51] was incorporated into the oligomer utilizing standard solid phase supported DNA synthesis. ODN1 was purified using reverse-phase HPLC and annealed with a complimentary strand to form a duplex. […] By tracking the fluorescence changes under pseudo-first order conditions (FIG. 8), an apparent rate constant k=590 M^−1 s^−1 was determined for the reaction between PINK and the duplex DNA containing VdU. […]
Kinetic Measurements with ODNs. Second-order rate constants for the reaction between vinyl-modified ODN and PINK were determined under pseudo first order conditions employing an excess of the tetrazine. […] Measurements were performed on a SpectraMax M5 plate reader (Molecular Devices, Sunnyvale, CA, USA) in 384 well plates (Greiner bio-one, cat-#871906; 40 μL per well). […] Samples were measured over the course of 1 h in intervals of 45 s. […] Reactions rates were calculated using pseudo first order approximations fitting the measurements to mono exponential equations. […]

PINK stability test = type: physicochemical; conditions: 20 μM PINK, 1 mM b.p. CT-DNA, PBS pH 7.4 (10% DMSO)
Description: B) Fluorescence changes (excitation: 500 nm, emission: 590 nm; 515 nm cutoff filter) of 20 μM PINK in the presence of 1 mM b.p. CT-DNA (50 eq) in PBS pH 7.4 (10% DMSO) followed by addition of 5-norbornene-2-methanol (2 mM, 100 eq).
PINK Stability Test. Fluorescence changes (excitation: 500 nm, emission: 590 nm; 515 nm cutoff filter) of 20 μM PINK were monitored in the presence of 1 mM base pairs of calf thymus (CT) DNA (50 eq) in PBS pH 7.4 (10% DMSO) followed by addition of 5-norbornene-2-methanol (2 mM, 100 eq). Measurements were conducted on a SpectraMax M5 plate reader (Molecular Devices, Sunnyvale, CA, USA) in 1 cm path-length quartz cuvettes.

[2] = system: VdU-labeled DNA in living Hela cells; assay: Live-cell metabolic labeling, PINK staining kinetics; type: cell-based
Description: To evaluate the ability of PINK to enter live cells and undergo fluorogenic reactions with vinyl groups in native chromatin, Hela cells were grown in rich media containing 10 μM VdU for 15 h and subsequently stained with 1-2 μM PINK for 4 h. Total cellular DNA was counterstained with Hoechst […] (5 μM; 405 nm laser; emission 410-480 nm) for 10 minutes prior to imaging PINK (514 nm laser; emission 570-700 nm). Control (ctrl) samples were treated with PINK but not VdU. All cells were treated and maintained in DMEM media containing 10% FBS and grown in 5% CO2 at 37° C. Live cell images were acquired using a confocal microscope.
The intracellular reaction kinetics of PINK staining was next investigated. Cells were seeded at a concentration of 2.5×10^4 cells/mL, allowed to settle overnight, and incubated with 100 μM VdU for 24 h. Cells were stained with 10 μM PINK between 10 min and 25 h, co-stained with Hoechst 33342 (5 μg/mL), and images were acquired on a confocal microscope. Samples were optimized for an ideal signal to noise ratio after staining for 1 h, illustrating a sufficiently bright signal at this stage. Ctrl samples were exposed to PINK for 25 h, thus explaining the relatively high background. […] Labeling was efficient in multiple cell lines. U2OS cells were seeded in μ-slide 8-well (Ibidi®) (3.0×10^4 cells in 200 μL; 1.5×10^5 cells/mL) in DMEM and given 20 h to settle. Cells were aspirated and VdU (0-100 μM in 200 μL DMEM) was added. Cells were incubated for 18 h, aspirated, and PINK (5 μM in 200 μL DMEM, 0.05% DMSO) was added. Cells were incubated for 5 h, aspirated, and Hoechst 33342 (2 μg/mL in 200 μL DMEM) was added for 15 min. Cells were aspirated and the media was exchanged for 200 μL DMEM (-Phenol Red). Images were acquired on a confocal microscope (FIG. 11). […] Cells (5.0×10^4 cells/mL) were seeded and allowed to settle overnight. Cells were incubated with 20 μM VdU for 16 h and stained with 2 μM PINK for 5 h, Cells were aspirated and fresh media (w/o Phenol Red) was added. Control Samples received identical treatment, but were not exposed to VdU. […]

[3] = 100 μM VdU 24 h, then 10 μM PINK

Cc1nnc(-c2ccc3cc4ccc(N(C)C)cc4nc3c2)nn1 [PINK]
apparent rate constant k, reaction with duplex DNA containing VdU ([1]; 4 μM vinyl-modified ODN, PINK 3-5 eq): 590 M⁻¹ s⁻¹
stability of PINK under control conditions (without vinyl-modified ODN) ([1]; 12-20 μM PINK, 1 h): full stability
degradation of PINK on extended incubation with unmodified DNA (PINK stability test): little-to-no degradation
retention of fluorescent signal in living cells ([2]; 20 μM VdU 16 h, 2 μM PINK 5 h, fresh media, t=0, 24 h): retained in living cells 24 h after being removed from the media
incubation time after which a clear signal above background is observed [2, 3]: 1 h
staining duration ideal to achieve complete labeling [2, 3]: 5 h
